Data from ChEMBL document CHEMBL1201862, “PubChem BioAssay data set” (2004).
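48-hour exposure; five concentrations; linearly interpolated endpoints. Abbreviation: GI50, concentration required for 50% inhibition of growth.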 The source made the active and inactive calls. Rule as the data show it: active = GI50 up to about 1.1 µM and inactive = higher.

Assays:
Experiment in all cases: growth of human tumour cells (NCI), 48 h
NCI-H23 = system: NCI-H23
SNB-19 = system: SNB-19
A549 = system: A549
NCI-H226 = system: NCI-H226
K562 = system: K562
OVCAR-5 = system: OVCAR-5
COLO 205 = system: COLO 205
CAKI-1 = system: CAKI-1
SK-OV-3 = system: SK-OV-3
SNB-75 = system: SNB-75
DMS-273 = system: DMS-273
OVCAR-3 = system: OVCAR-3
SK-MEL-5 = system: SK-MEL-5
DMS-114 = system: DMS-114
A498 = system: A498
HT-29 = system: HT-29
RPMI-8226 = system: RPMI-8226
U-251 = system: U-251
HCT-116 = system: HCT-116
SK-MEL-2 = system: SK-MEL-2
MOLT-4 = system: MOLT-4
HOP-18 = system: HOP-18
SF-539 = system: SF-539
HOP-62 = system: HOP-62
SK-MEL-28 = system: SK-MEL-28
HOP-92 = system: HOP-92
SNB-78 = system: SNB-78
NCI-H460 = system: NCI-H460
ACHN = system: ACHN
SR = system: SR
SF-295 = system: SF-295
IGROV-1 = system: IGROV-1
UACC-257 = system: UACC-257
SW-620 = system: SW-620
SN12C = system: SN12C
DLD-1 = system: DLD-1
786-0 = system: 786-0
HCT-15 = system: HCT-15
KM-20L2 = system: KM-20L2
M14 = system: M14
EKVX = system: EKVX
KM12 = system: KM12
HL-60 = system: HL-60
UO-31 = system: UO-31
SF-268 = system: SF-268
OVCAR-4 = system: OVCAR-4
OVCAR-8 = system: OVCAR-8
Malme-3M = system: Malme-3M
LXFL 529 = system: LXFL 529
NCI-H522 = system: NCI-H522
MDA-N = system: MDA-N
UACC-62 = system: UACC-62
T47D = system: T47D
RXF 393 = system: RXF 393
MDA-MB-231 = system: MDA-MB-231
CCRF-CEM = system: CCRF-CEM
LOX IMVI = system: LOX IMVI
PC-3 = system: PC-3
Hs-578T = system: Hs-578T
TK-10 = system: TK-10
MCF7 = system: MCF7
DU-145 = system: DU-145
M19-MEL = system: M19-MEL
HCC 2998 = system: HCC 2998
BT-549 = system: BT-549

CCOc1ccc2c(c1)[n+]([O-])c(-c1ccc(Cl)cc1)c(N)[n+]2[O-]
GI50 (NCI-H23): > 100 µM (inactive)
GI50 (SNB-19): > 100 µM (inactive)
GI50 (A549): > 100 µM (inactive)
GI50 (NCI-H226): > 100 µM (inactive)
GI50 (K562): > 100 µM (inactive)
GI50 (OVCAR-5): > 100 µM (inactive)
GI50 (COLO 205): > 100 µM (inactive)
GI50 (CAKI-1): > 100 µM (inactive)
GI50 (SK-OV-3): > 100 µM (inactive)
GI50 (SNB-75): 85.1 µM (inactive)
GI50 (DMS-273): > 100 µM (inactive)
GI50 (OVCAR-3): > 100 µM (inactive)
GI50 (SK-MEL-5): > 100 µM (inactive)
GI50 (DMS-114): 68.7 µM (inactive)
GI50 (A498): > 100 µM (inactive)
GI50 (HT-29): > 100 µM (inactive)
GI50 (RPMI-8226): 10.8 µM (inactive)
GI50 (U-251): > 100 µM (inactive)
GI50 (HCT-116): > 100 µM (inactive)
GI50 (SK-MEL-2): > 100 µM (inactive)
GI50 (MOLT-4): 44.3 µM (inactive)
GI50 (HOP-18): > 100 µM (inactive)
GI50 (SF-539): > 100 µM (inactive)
GI50 (HOP-62): > 100 µM (inactive)
GI50 (SK-MEL-28): > 100 µM (inactive)
GI50 (HOP-92): > 100 µM (inactive)
GI50 (SNB-78): > 100 µM (inactive)
GI50 (NCI-H460): > 100 µM (inactive)
GI50 (ACHN): > 100 µM (inactive)
GI50 (SR): > 100 µM (inactive)
GI50 (SF-295): > 100 µM (inactive)
GI50 (IGROV-1): > 100 µM (inactive)
GI50 (UACC-257): > 100 µM (inactive)
GI50 (SW-620): > 100 µM (inactive)
GI50 (SN12C): > 100 µM (inactive)
GI50 (DLD-1): > 100 µM (inactive)
GI50 (786-0): > 100 µM (inactive)
GI50 (HCT-15): > 100 µM
GI50 (KM-20L2): > 100 µM (inactive)
GI50 (M14): > 100 µM (inactive)
GI50 (EKVX): 95.7 µM (inactive)
GI50 (KM12): > 100 µM (inactive)
GI50 (HL-60): 44 µM (inactive)
GI50 (UO-31): 67.1 µM (inactive)
GI50 (SF-268): > 100 µM (inactive)
GI50 (OVCAR-4): > 100 µM (inactive)
GI50 (OVCAR-8): > 100 µM (inactive)
GI50 (Malme-3M): > 100 µM (inactive)
GI50 (LXFL 529): 87.7 µM (inactive)
GI50 (NCI-H522): 34.4 µM (inactive)

COc1ccc(OC(=O)N2C/C(=C\c3ccccc3)C(=O)/C(=C/c3ccccc3)C2)cc1
GI50 (MDA-N): 1.76 µM (inactive)
GI50 (NCI-H23): 5.05 µM (inactive)
GI50 (SNB-19): 4.62 µM (inactive)
GI50 (A549): 15.2 µM (inactive)
GI50 (NCI-H226): 10.1 µM (inactive)
GI50 (K562): 0.824 µM (active)
GI50 (OVCAR-5): 7.64 µM (inactive)
GI50 (COLO 205): 7.74 µM (inactive)
GI50 (SK-OV-3): 8.69 µM (inactive)
GI50 (SNB-75): 7.83 µM (inactive)
GI50 (DMS-273): 2.09 µM (inactive)
GI50 (UACC-62): 2.16 µM (inactive)
GI50 (T47D): 16 µM (inactive)
GI50 (RXF 393): 2.58 µM (inactive)
GI50 (OVCAR-3): 6.85 µM (inactive)
GI50 (SK-MEL-5): 3.09 µM (inactive)
GI50 (MDA-MB-231): 3.21 µM (inactive)
GI50 (A498): 2.33 µM (inactive)
GI50 (HT-29): 1.27 µM (inactive)
GI50 (RPMI-8226): 0.0476 µM (active)
GI50 (U-251): 2.48 µM (inactive)
GI50 (HCT-116): 0.355 µM (active)
GI50 (SK-MEL-2): 11.6 µM (inactive)
GI50 (MOLT-4): 1.49 µM (inactive)
GI50 (CCRF-CEM): 1.02 µM (active)
GI50 (HOP-18): 16.8 µM (inactive)
GI50 (LOX IMVI): 0.962 µM (active)
GI50 (SF-539): 7.82 µM (inactive)
GI50 (HOP-62): 8.15 µM (inactive)
GI50 (SK-MEL-28): 2.14 µM (inactive)
GI50 (HOP-92): 19.1 µM (inactive)
GI50 (SNB-78): 3.43 µM (inactive)
GI50 (NCI-H460): 5.42 µM (inactive)
GI50 (ACHN): 3.94 µM (inactive)
GI50 (SR): 0.222 µM (active)
GI50 (SF-295): 2.99 µM (inactive)
GI50 (PC-3): 3.66 µM (inactive)
GI50 (Hs-578T): 2.11 µM (inactive)
GI50 (IGROV-1): 5.6 µM (inactive)
GI50 (UACC-257): 3.74 µM (inactive)
GI50 (SW-620): 1.03 µM (active)
GI50 (SN12C): 2.43 µM (inactive)
GI50 (TK-10): 18.2 µM (inactive)
GI50 (DLD-1): 1.71 µM (inactive)
GI50 (MCF7): 0.697 µM (active)
GI50 (786-0): 2.96 µM (inactive)
GI50 (HCT-15): 2.79 µM
GI50 (KM-20L2): 5.42 µM (inactive)
GI50 (M14): 2.62 µM (inactive)
GI50 (DU-145): 24.9 µM (inactive)
GI50 (EKVX): 16.6 µM (inactive)
GI50 (KM12): 1.43 µM (inactive)
GI50 (HL-60): 0.746 µM (active)
GI50 (M19-MEL): 1.38 µM (inactive)
GI50 (UO-31): 10.2 µM (inactive)
GI50 (SF-268): 3.67 µM (inactive)
GI50 (OVCAR-4): 8.17 µM (inactive)
GI50 (HCC 2998): 2.9 µM (inactive)
GI50 (BT-549): 2.24 µM (inactive)
GI50 (OVCAR-8): 2.47 µM (inactive)
GI50 (Malme-3M): 11.1 µM (inactive)
GI50 (LXFL 529): 2.64 µM (inactive)
GI50 (NCI-H522): 2.05 µM (inactive)
